Assay results: patent US9889146B2, “Benzoxaborole compounds and uses thereof” (priority 2012, dated 2018)
Converted amounts (≈) assume the structure as drawn. “Also recorded” adds a separate entry of the source. Read-outs that look alike come from different tables or passages of the source.

Assays:
[1] = system: Enterobacter aerogenes (WT); assay: microbe, parasite or virus in culture; type: cell-based; conditions: Klebsiella aerogenes, Enterobacter aerogenes (WT)
[2] = system: S. marcescens (AmpC); assay: microbe, parasite or virus in culture; type: cell-based; conditions: Serratia marcescens
[3] = system: E. coli ATCC 25922, K. pneumoniae ATCC 13883, and P. aeruginosa ATCC 27853; assay: Spontaneous frequency of resistance, three strains summarised; type: cell-based
Experimental: Spontaneous Resistance Frequency was determined in vitro for GSK2251052 and the resistance mutants in E. coli ATCC 25922, K. pneumoniae ATCC 13883, and P. aeruginosa ATCC 27853 strains were characterized. GSK2251052 was prepared as described in U.S. Pat. No. 7,816,344 (the entire contents of which are hereby incorporated by reference herein). LB broth, Mueller Hinton II broth (adjusted), and Difco noble agar were obtained from Becton Dickinson (Cockeysville, Md., USA). M9 minimal broth containing 1×M9 salt, 0.5 μg/ML thiamine, 1 mM MgSO4, 0.1 mM CaCl2, 2% glucose, was obtained from Teknova (Hollister, Calif., USA). Antibacterial agents ciprofloxacin, ceftazidime, chloramphenicol, gentamycin, kanamycin, polymixin B, tobramycin and trimethoprim, and amino acids were obtained from Sigma Chemicals (St. Louis, Mo., USA). Strains were obtained from ATCC (Manassas, Va., USA).
Selection of resistance to GSK2251052 was attempted by spreading various amounts of bacteria onto MHBII noble agar plates containing 4×MIC (minimum inhibitory concentration) or 10×MIC of GSK2251052. Colonies were counted after 24 hours and 48 hours incubation at 37° C. […] Frequency of resistance was determined by dividing the number of resistant mutants by the total number of cells plated as determined by plating dilutions of the overnight culture on LB plates.

[4] = system: E. coli (ESBL); assay: microbe, parasite or virus in culture; type: cell-based; conditions: Escherichia coli
[5] = system: E. coli 1162222 (standard strain) and clinical isolate 1a of E. coli; assay: Frequency of spontaneous resistance to GSK2251052 in the presence of norvaline; type: cell-based, Escherichia coli
Experimental: Clinical strains of Escherichia coli and Proteus mirabilis isolated from the above-described clinical trial study (Table 12), along with other E. coli strains were used to measure the suppression of the emergence of resistant bacterial strains in vitro and to determine the susceptibility of these GSK2251052 resistant bacterial isolates to norvaline.
GSK2251052 and norvaline were prepared at a concentration of 6.4 mg/mL (free base) in 100% DMSO and 100% water respectively, aliquoted in 0.5 mL individual stocks, and stored at −20° C. until required.
Plates were poured and left to cool and solidify.
Cultures were prepared by inoculating broth with a bacterial suspension in saline, prepared from plates derived from individual colonies. For each organism, 100 mL of CAMHB was inoculated with 5 mL of a bacterial suspension with turbidity equivalent to 0.5 McFarland. These cultures were incubated on an orbital shaker at 37° C. until the broth was visibly turbid (approximately 3 hours). Following incubation, cultures were centrifuged at 11,000 g for 10 min at 4° C. The culture media was then decanted and cell pellets were resuspended to an appropriate cell concentration in fresh CAMHB or M9. The ratio of OD625 to CFU/mL used to approximate culture size is 0.1:1.0×10^8. Targeted E. coli cell concentrations were 2×10^9 CFU/mL.
Viable counts were performed to determine the concentration of the initial test inoculum using the following steps: 1) ten-fold serial dilutions of each sample were prepared; 2) three 20 μL aliquots from wells corresponding to 10^−5, […], 10^−7 and 10^−8 dilutions were plated onto the appropriate agar plates; 3) the plates were incubated overnight at 35° C. and counts were performed at the dilution that provided distinguishable colonies; 4) an average of the three aliquots was used to determine the number of colony forming units (CFU) in the original sample.
In addition, 100 μL of each cell suspension was spread onto the surface of plates containing the appropriate multiple of MIC concentration of compound and a control agar plate containing no compound. Plates were incubated at 35° C. in ambient air.
Colonies were counted after 24, 48 and 72 hours. […] In order to confirm their resistance phenotype, the susceptibility of these isolates to the selecting agent was tested by broth microdilution methodology.
The frequency of spontaneous resistance was calculated by dividing the total number of resistant colonies growing on plates containing antibiotic by the total number of colony forming units plated. In order to confirm the resistance phenotype, the MIC of the selecting agent was determined against a representative number of colonies from each antibiotic concentration/strain combination. […] The total number of resistant colonies on the plates was extrapolated from the representative set tested.

[6] = read-out: susceptibility category of MIC90

## NC[C@H]1OB(O)c2c(OCCCO)cccc21 [GSK2251052, (S)-3-aminomethyl-7-(3-hydroxy-propoxy)-3h-benzo[c][1,2]oxaborol-1-ol]
[1]; 199 isolates, read-out: MIC90
  MIC90: 1 µg/mL (≈ 4.22 µM)
[1]; GSK2251052 breakpoint, read-out: susceptibility category of MIC90
  susceptibility category of MIC90: < 4 µg/mL
[2]
  MIC90: 1 µg/mL (≈ 4.22 µM)
[2]; [6]
  MIC90: < 4 µg/mL
[3]; measured at 24 h
  frequency of resistance, range: 10^−7 to 10^−8
[3]; three ATCC strains, 24 h and 48 h time points
  frequency of resistance, range: 10^−7 to 10^−8
[4]
  MIC90: 1 µg/mL (≈ 4.22 µM)
[4]; [6]
  MIC90: < 4 µg/mL
[5]; CAMH Agar, E. coli Isolate 1a, Norvaline 0 μg/mL
  Frequency of Resistant to GSK2251052 (4 μg/mL): 6.3 × 10^−8
[5]; CAMH Agar, E. coli Isolate 1a, Norvaline 2 μg/mL
  Frequency of Resistant to GSK2251052 (4 μg/mL): 7.6 × 10^−8
[5]; CAMH Agar, E. coli Isolate 1a, Norvaline 4 μg/mL
  Frequency of Resistant to GSK2251052 (4 μg/mL): 4.7 × 10^−8
[5]; CAMH Agar, E. coli Isolate 1a, Norvaline 8 μg/mL
  Frequency of Resistant to GSK2251052 (4 μg/mL): 6.3 × 10^−8
[5]; CAMH Agar, E. coli Isolate 1a, Norvaline 16 μg/mL
  Frequency of Resistant to GSK2251052 (4 μg/mL): 4.5 × 10^−8
[5]; CAMH Agar, E. coli Isolate 1a, Norvaline 32 μg/mL
  Frequency of Resistant to GSK2251052 (4 μg/mL): 5.0 × 10^−8
[5]; CAMH Agar, E. coli Isolate 1a, Norvaline 64 μg/mL
  Frequency of Resistant to GSK2251052 (4 μg/mL): 5.3 × 10^−8
[5]; CAMH Agar, E. coli baseline strain, Norvaline 0 μg/mL
  Frequency of Resistant to GSK2251052 (4 μg/mL): 1.2 × 10^−7
[5]; CAMH Agar, E. coli baseline strain, Norvaline 2 μg/mL
  Frequency of Resistant to GSK2251052 (4 μg/mL): 5.0 × 10^−8
[5]; CAMH Agar, E. coli baseline strain, Norvaline 4 μg/mL
  Frequency of Resistant to GSK2251052 (4 μg/mL): 1.2 × 10^−7
[5]; CAMH Agar, E. coli baseline strain, Norvaline 8 μg/mL
  Frequency of Resistant to GSK2251052 (4 μg/mL): 6.8 × 10^−8
[5]; CAMH Agar, E. coli baseline strain, Norvaline 16 μg/mL
  Frequency of Resistant to GSK2251052 (4 μg/mL): 6.1 × 10^−8
[5]; CAMH Agar, E. coli baseline strain, Norvaline 32 μg/mL
  Frequency of Resistant to GSK2251052 (4 μg/mL): 1.1 × 10^−7
[5]; CAMH Agar, E. coli baseline strain, Norvaline 64 μg/mL
  Frequency of Resistant to GSK2251052 (4 μg/mL): 9.3 × 10^−8
[5]; M9 Agar, E. coli Isolate 1a, Norvaline 0 μg/mL
  Frequency of Resistant to GSK2251052 (4 μg/mL): 3.8×10^−7
[5]; M9 Agar, E. coli Isolate 1a, Norvaline 2 μg/mL
  Frequency of Resistant to GSK2251052 (4 μg/mL): 4.8×10^−8
[5]; M9 Agar, E. coli Isolate 1a, Norvaline 4 μg/mL
  Frequency of Resistant to GSK2251052 (4 μg/mL): <1.7 × 10^−9
[5]; M9 Agar, E. coli Isolate 1a, Norvaline 8 μg/mL
  Frequency of Resistant to GSK2251052 (4 μg/mL): <1.7 × 10^−9
[5]; M9 Agar, E. coli Isolate 1a, Norvaline 16 μg/mL
  Frequency of Resistant to GSK2251052 (4 μg/mL): <1.7 × 10^−9
[5]; M9 Agar, E. coli Isolate 1a, Norvaline 32 μg/mL
  Frequency of Resistant to GSK2251052 (4 μg/mL): <1.7 × 10^−9
[5]; M9 Agar, E. coli Isolate 1a, Norvaline 64 μg/mL
  Frequency of Resistant to GSK2251052 (4 μg/mL): <1.7 × 10^−9
[5]; M9 Agar, E. coli baseline strain, Norvaline 0 μg/mL
  Frequency of Resistant to GSK2251052 (4 μg/mL): 4.9×10^−8
[5]; M9 Agar, E. coli baseline strain, Norvaline 2 μg/mL
  Frequency of Resistant to GSK2251052 (4 μg/mL): 2.8 × 10^−8
[5]; M9 Agar, E. coli baseline strain, Norvaline 4 μg/mL
  Frequency of Resistant to GSK2251052 (4 μg/mL): 2.0 × 10^−8
[5]; M9 Agar, E. coli baseline strain, Norvaline 8 μg/mL
  Frequency of Resistant to GSK2251052 (4 μg/mL): 6.0 × 10^−8
[5]; M9 Agar, E. coli baseline strain, Norvaline 16 μg/mL
  Frequency of Resistant to GSK2251052 (4 μg/mL): 3.0 × 10^−9
[5]; M9 Agar, E. coli baseline strain, Norvaline 32 μg/mL
  Frequency of Resistant to GSK2251052 (4 μg/mL): <1.0 × 10^−9
[5]; M9 Agar, E. coli baseline strain, Norvaline 64 μg/mL
  Frequency of Resistant to GSK2251052 (4 μg/mL): <1.0 × 10^−9
[5]; M9 minimal media, E. coli baseline strain, no norvaline versus >32 μg/mL
  decrease in the frequency of resistance to GSK2251052: ≥ 50 fold
[5]; M9 minimal media, E. coli clinical isolate from subject E. coli 1, no norvaline versus >4 μg/mL
  decrease in the frequency of spontaneous resistance: over 200 fold
[5]; both E. coli strains, rich media, GSK2251052 4 μg/mL, norvaline up to 64 μg/mL
  effect of norvaline on frequency of resistance in rich media: remained the same; also recorded: did not change the frequency of spontaneous resistance
[5]; minimal media, E. coli clinical isolate 1a, norvaline ≧4 μg/mL
  frequency of resistance to GSK2251052: < 1.7×10^−9
[5]; minimal media, baseline E. coli strain, norvaline at 8 μg/mL
  reduction of the appearance of mutants: 10 fold
[5]; minimal media, baseline E. coli strain, norvaline ≧32 μg/mL
  frequency of resistance to GSK2251052: < 1×10^−9
